Results from patent US20250145665A1, “MACROCYCLIC PEPTIDES USEFUL AS MODULATORS OF TNF ALPHA” (Bristol-Myers Squibb Company, priority 2023, published 2025).
Starred links: 1 amine or outer side, 2 acyl side, 3 side chain; linkers in the order of their positions; H or OH if unused. Positions of bridges follow the written chain, without caps; N, C: chain ends. Non-standard residues stand in square brackets, D forms with d. Residues, ends and D or L forms follow the SMILES beside them. Bip(4'-COOH) = N[C@@H](Cc1ccc(-c2ccc(C(=O)O)cc2)cc1)C(=O)O; Bip(4'-NHAc) = CC(=O)Nc1ccc(-c2ccc(C[C@H](N)C(=O)O)cc2)cc1; Phe(3-CH2NH2) = O=C([C@H](Cc1cccc(CN[*:3])c1)N[*:1])[*:2]; Ala(morpholin-4-yl) = N[C@@H](CN1CCOCC1)C(=O)O; Bip = N[C@@H](Cc1ccc(-c2ccccc2)cc1)C(=O)O; Morpholine(3S-CO) = O=C(O)[C@@H]1COCCN1; Pro(4S-NH2) = N[C@@H]1CN[C@H](C(=O)O)C1; Val(3-OH) = CC(C)(O)[C@H](N)C(=O)O; cisHyp = O=C(O)[C@@H]1C[C@H](O)CN1; h4Pal = N[C@@H](CCc1ccncc1)C(=O)O; 2Pal = N[C@@H](Cc1ccccn1)C(=O)O; Cha = N[C@@H](CC1CCCCC1)C(=O)O; Pip = O=C(O)[C@@H]1CCCCN1; Aze = O=C(O)[C@@H]1CCN1; Sar = CNCC(=O)O

What follows are compounds tested against TNFα (Homo sapiens, UniProt P01375) (assay: TNF-Induced HEK-Blue Assay). Conditions: HEK-Blue-CD40L cells, NF-kB-driven secreted alkaline phosphatase reporter; TNFα 0.5 ng/ml; 18 h; read-out: TNF induced HEK-Blue assay IC50 value.
Assay type: cell-based

TNFα, sequence (P01375 77-233 limits assumed): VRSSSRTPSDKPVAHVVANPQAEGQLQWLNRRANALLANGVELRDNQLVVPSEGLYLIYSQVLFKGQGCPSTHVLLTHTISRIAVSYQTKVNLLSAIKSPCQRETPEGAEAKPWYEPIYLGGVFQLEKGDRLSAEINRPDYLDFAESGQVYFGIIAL

Row | IC50 | SMILES
1 | 50 to 200 nM | CC(=O)Nc1ccc(-c2ccc(C[C@@H]3NC(=O)[C@H](Cc4ccc(-c5ccccc5)cc4)NC(=O)[C@H](CN4CCOCC4)NC(=O)CSC[C@@H](C(=O)NCC(N)=O)NC(=O)[C@H](CC(C)C)NC(=O)[C@H](Cc4ccc(O)cc4)NC(=O)[C@H](C(C)C)NC(=O)[C@@H]4COCCN4C(=O)[C@H](C(C)C)NC(=O)[C@@H](CCCNC(=N)N)NC(=O)[C@H](CC(=O)O)NC(=O)[C@H](Cc4ccccn4)NC(=O)CN(C)C3=O)cc2)cc1 [Example 180] ({CH2CO}-[Ala(morpholin-4-yl)][Bip][Bip(4'-NHAc)][Sar][2Pal]D[dR]V[Morpholine(3S-CO)]VYLCG-NH2; thioether N-13)
2 | < 50 nM | CC(=O)Nc1ccc(-c2ccc(C[C@@H]3NC(=O)[C@H](Cc4ccc(-c5ccc(C(=O)O)cc5)cc4)NC(=O)[C@H](CN4CCOCC4)NC(=O)CSC[C@@H](C(=O)NCC(N)=O)NC(=O)[C@H](CC(C)C)NC(=O)[C@H](Cc4cccc(CN)c4)NC(=O)[C@H](C(C)C)NC(=O)[C@@H]4CCN4C(=O)[C@H](C(C)C)NC(=O)[C@@H](CCCNC(=N)N)NC(=O)[C@H](CC(=O)O)NC(=O)[C@H](Cc4ccccn4)NC(=O)CN(C)C3=O)cc2)cc1 [Example 181] ({CH2CO}-[Ala(morpholin-4-yl)][Bip(4'-COOH)][Bip(4'-NHAc)][Sar][2Pal]D[dR]V[Aze]V[Phe(3-CH2NH2)]LCG-NH2; thioether N-13)
3 | 50 to 200 nM | CC(=O)Nc1ccc(-c2ccc(C[C@@H]3NC(=O)[C@H](Cc4ccc(-c5ccccc5)cc4)NC(=O)[C@H](CN4CCOCC4)NC(=O)CSC[C@@H](C(=O)NCC(N)=O)NC(=O)[C@H](CC(C)C)NC(=O)[C@H](Cc4ccc(O)cc4)NC(=O)[C@H](C(C)C)NC(=O)[C@@H]4CCCN4C(=O)[C@H](C(C)C)NC(=O)[C@@H](CCCNC(=N)N)NC(=O)[C@H](CC(=O)O)NC(=O)[C@@H]4CCCCN4C(=O)CN(C)C3=O)cc2)cc1 [Example 182] ({CH2CO}-[Ala(morpholin-4-yl)][Bip][Bip(4'-NHAc)][Sar][Pip]D[dR]VPVYLCG-NH2; thioether N-13)
4 | 50 to 200 nM | CC(=O)Nc1ccc(-c2ccc(C[C@@H]3NC(=O)[C@H](Cc4ccc(-c5ccccc5)cc4)NC(=O)[C@H](CN4CCOCC4)NC(=O)CSC[C@@H](C(=O)NCC(N)=O)NC(=O)[C@H](CC(C)C)NC(=O)[C@H](Cc4ccc(O)cc4)NC(=O)[C@H](C(C)C)NC(=O)[C@@H]4CCCN4C(=O)[C@H](C(C)C)NC(=O)[C@@H](CCCNC(=N)N)NC(=O)[C@H](CC(=O)O)NC(=O)[C@@H]4C[C@H](O)CN4C(=O)CN(C)C3=O)cc2)cc1 [Example 183] ({CH2CO}-[Ala(morpholin-4-yl)][Bip][Bip(4'-NHAc)][Sar][cisHyp]D[dR]VPVYLCG-NH2; thioether N-13)
5 | < 50 nM | CC(=O)Nc1ccc(-c2ccc(C[C@@H]3NC(=O)[C@H](Cc4ccc(-c5ccccc5)cc4)NC(=O)[C@H](CN4CCOCC4)NC(=O)CSC[C@@H](C(=O)NCC(N)=O)NC(=O)[C@H](CC(C)C)NC(=O)[C@H](Cc4ccc(O)cc4)NC(=O)[C@H](C(C)C)NC(=O)[C@@H]4CCCN4C(=O)[C@H](C(C)C)NC(=O)[C@@H](CCCNC(=N)N)NC(=O)[C@H](CC(=O)O)NC(=O)[C@@H]4C[C@H](N)CN4C(=O)CN(C)C3=O)cc2)cc1 [Example 184] ({CH2CO}-[Ala(morpholin-4-yl)][Bip][Bip(4'-NHAc)][Sar][Pro(4S-NH2)]D[dR]VPVYLCG-NH2; thioether N-13)
6 | < 50 nM | CC(=O)Nc1ccc(-c2ccc(C[C@@H]3NC(=O)[C@H](Cc4ccc(-c5ccc(C(=O)O)cc5)cc4)NC(=O)[C@H](CN4CCOCC4)NC(=O)CSC[C@@H](C(=O)NCC(N)=O)NC(=O)[C@H](CC(C)C)NC(=O)[C@H](CCCNC(=N)N)NC(=O)[C@H](C(C)C)NC(=O)[C@@H]4CCN4C(=O)[C@H](C(C)C)NC(=O)[C@@H](CCCNC(=N)N)NC(=O)[C@H](CC(=O)O)NC(=O)[C@H](Cc4ccccn4)NC(=O)CN(C)C3=O)cc2)cc1 [Example 185] ({CH2CO}-[Ala(morpholin-4-yl)][Bip(4'-COOH)][Bip(4'-NHAc)][Sar][2Pal]D[dR]V[Aze]VRLCG-NH2; thioether N-13)
7 | 50 to 200 nM | CC(C)C[C@@H]1NC(=O)[C@H](Cc2ccc(O)cc2)NC(=O)[C@H](C(C)C)NC(=O)[C@@H]2CCCN2C(=O)[C@H](C(C)C)NC(=O)[C@@H](CCCNC(=N)N)NC(=O)[C@H](CC(=O)O)NC(=O)[C@H](Cc2ccc(O)cc2)NC(=O)CN(C)C(=O)[C@H](Cc2ccc(-c3ccccc3)cc2)NC(=O)[C@H](Cc2ccc(-c3ccc(C(=O)O)cc3)cc2)NC(=O)[C@H](CCc2ccncc2)NC(=O)CSC[C@@H](C(=O)NCC(N)=O)NC1=O [Example 186] ({CH2CO}-[h4Pal][Bip(4'-COOH)][Bip][Sar]YD[dR]VPVYLCG-NH2; thioether N-13)
8 | 50 to 200 nM | CC(C)C[C@@H]1NC(=O)[C@H](Cc2ccc(O)cc2)NC(=O)[C@H](C(C)C)NC(=O)[C@@H]2CCCN2C(=O)[C@H](C(C)C)NC(=O)[C@@H](CCCNC(=N)N)NC(=O)[C@H](CC(=O)O)NC(=O)[C@H](Cc2ccc(O)cc2)NC(=O)CN(C)C(=O)[C@H](Cc2ccc(-c3ccccc3)cc2)NC(=O)[C@H](Cc2ccc(-c3ccc(C(=O)O)cc3)cc2)NC(=O)[C@H](CC2CCCCC2)NC(=O)CSC[C@@H](C(=O)NCC(N)=O)NC1=O [Example 187] ({CH2CO}-[Cha][Bip(4'-COOH)][Bip][Sar]YD[dR]VPVYLCG-NH2; thioether N-13)
9 | < 50 nM | CC[C@H](C)[C@@H]1NC(=O)CSC[C@@H](C(=O)NCC(N)=O)NC(=O)[C@H](CC(C)C)NC(=O)[C@H](Cc2ccc(O)cc2)NC(=O)[C@H](C(C)C)NC(=O)[C@@H]2CCCN2C(=O)[C@H](C(C)C)NC(=O)[C@@H](CCCNC(=N)N)NC(=O)[C@H](CC(=O)O)NC(=O)[C@H](Cc2ccc(O)cc2)NC(=O)CN(C)C(=O)[C@H](Cc2ccc(-c3ccccc3)cc2)NC(=O)[C@H](Cc2ccc(-c3ccc(C(=O)O)cc3)cc2)NC1=O [Example 188] ({CH2CO}-I[Bip(4'-COOH)][Bip][Sar]YD[dR]VPVYLCG-NH2; thioether N-13)
10 | 200 to 2000 nM | CC(C)C[C@@H]1NC(=O)[C@H](Cc2ccc(O)cc2)NC(=O)[C@H](C(C)C)NC(=O)[C@@H]2CCCN2C(=O)[C@H](C(C)C)NC(=O)[C@@H](CCCNC(=N)N)NC(=O)[C@H](CC(=O)O)NC(=O)[C@H](Cc2ccc(O)cc2)NC(=O)CN(C)C(=O)[C@H](Cc2ccc(-c3ccccc3)cc2)NC(=O)[C@H](Cc2ccc(-c3ccc(C(=O)O)cc3)cc2)NC(=O)[C@H](Cc2c[nH]c3ccccc23)NC(=O)CSC[C@@H](C(=O)NCC(N)=O)NC1=O [Example 189] ({CH2CO}-W[Bip(4'-COOH)][Bip][Sar]YD[dR]VPVYLCG-NH2; thioether N-13)
11 | 50 to 200 nM | CC(=O)Nc1ccc(-c2ccc(C[C@@H]3NC(=O)[C@H](Cc4ccc(-c5ccc(C(=O)O)cc5)cc4)NC(=O)[C@H](CN4CCOCC4)NC(=O)CSC[C@@H](C(=O)NCC(N)=O)NC(=O)[C@H](CC(C)C)NC(=O)[C@H](Cc4ccccn4)NC(=O)[C@H](C(C)C)NC(=O)[C@@H]4CCN4C(=O)[C@H](C(C)C)NC(=O)[C@@H](CCCNC(=N)N)NC(=O)[C@H](CC(=O)O)NC(=O)[C@H](Cc4ccccn4)NC(=O)CN(C)C3=O)cc2)cc1 [Example 190] ({CH2CO}-[Ala(morpholin-4-yl)][Bip(4'-COOH)][Bip(4'-NHAc)][Sar][2Pal]D[dR]V[Aze]V[2Pal]LCG-NH2; thioether N-13)
12 | 50 to 200 nM | CC(=O)Nc1ccc(-c2ccc(C[C@@H]3NC(=O)[C@H](Cc4ccc(-c5ccc(C(=O)O)cc5)cc4)NC(=O)[C@H](CN4CCOCC4)NC(=O)CSC[C@@H](C(=O)NCC(N)=O)NC(=O)[C@H](CC(C)C)NC(=O)[C@H](CCCNC(=N)N)NC(=O)[C@H](C(C)C)NC(=O)[C@@H]4CCCN4C(=O)[C@H](C(C)C)NC(=O)[C@H](CCCNC(=N)N)NC(=O)[C@H](CC(=O)O)NC(=O)[C@H](Cc4ccc(O)cc4)NC(=O)CN(C)C3=O)cc2)cc1 [Example 191] ({CH2CO}-[Ala(morpholin-4-yl)][Bip(4'-COOH)][Bip(4'-NHAc)][Sar]YDRVPVRLCG-NH2; thioether N-13)
13 | 50 to 200 nM | CC(=O)Nc1ccc(-c2ccc(C[C@@H]3NC(=O)[C@H](Cc4ccc(-c5ccccc5)cc4)NC(=O)[C@H](CN4CCOCC4)NC(=O)CSC[C@@H](C(=O)NCC(N)=O)NC(=O)[C@H](CC(C)C)NC(=O)[C@H](CCCNC(=N)N)NC(=O)[C@H](C(C)C)NC(=O)[C@@H]4CCCN4C(=O)[C@H](C(C)C)NC(=O)[C@H](CCCNC(=N)N)NC(=O)[C@H](CC(=O)O)NC(=O)[C@H](Cc4ccc(O)cc4)NC(=O)CNC3=O)cc2)cc1 [Example 192] ({CH2CO}-[Ala(morpholin-4-yl)][Bip][Bip(4'-NHAc)]GYDRVPVRLCG-NH2; thioether N-13)
14 | 50 to 200 nM | CC(=O)Nc1ccc(-c2ccc(C[C@@H]3NC(=O)[C@H](Cc4ccc(-c5ccccc5)cc4)NC(=O)[C@H](C(C)(C)O)NC(=O)CSC[C@@H](C(=O)NCC(N)=O)NC(=O)[C@H](CC(C)C)NC(=O)[C@H](CCCNC(=N)N)NC(=O)[C@H](C(C)C)NC(=O)[C@@H]4CCCN4C(=O)[C@H](C(C)C)NC(=O)[C@H](CCCNC(=N)N)NC(=O)[C@H](CC(=O)O)NC(=O)[C@H](Cc4ccc(O)cc4)NC(=O)CN(C)C3=O)cc2)cc1 [Example 193] ({CH2CO}-[Val(3-OH)][Bip][Bip(4'-NHAc)][Sar]YDRVPVRLCG-NH2; thioether N-13)
15 | 50 to 200 nM | CC(=O)Nc1ccc(-c2ccc(C[C@@H]3NC(=O)[C@H](Cc4ccc(-c5ccccc5)cc4)NC(=O)[C@H](C(C)(C)O)NC(=O)CSC[C@@H](C(=O)NCC(N)=O)NC(=O)[C@H](CC(C)C)NC(=O)[C@H](Cc4ccc(O)cc4)NC(=O)[C@H](C(C)C)NC(=O)[C@@H]4CCCN4C(=O)[C@H](C(C)C)NC(=O)[C@H](CCCNC(=N)N)NC(=O)[C@H](CC(=O)O)NC(=O)[C@@H]4CCCN4C(=O)CN(C)C3=O)cc2)cc1 [Example 194] ({CH2CO}-[Val(3-OH)][Bip][Bip(4'-NHAc)][Sar]PDRVPVYLCG-NH2; thioether N-13)
16 | < 50 nM | CC(=O)Nc1ccc(-c2ccc(C[C@@H]3NC(=O)[C@H](Cc4ccc(-c5ccccc5)cc4)NC(=O)[C@H](CN4CCOCC4)NC(=O)CSC[C@@H](C(=O)NCC(N)=O)NC(=O)[C@H](CC(C)C)NC(=O)[C@H](CCCNC(=N)N)NC(=O)[C@H](C(C)C)NC(=O)[C@@H]4CCCN4C(=O)[C@H](C(C)C)NC(=O)[C@@H](CCCNC(=N)N)NC(=O)[C@H](CC(=O)O)NC(=O)[C@H](Cc4ccc(O)cc4)NC(=O)CN(C)C3=O)cc2)cc1 [Example 195] ({CH2CO}-[Ala(morpholin-4-yl)][Bip][Bip(4'-NHAc)][Sar]YD[dR]VPVRLCG-NH2; thioether N-13)
